Data: patent publication US7964624B1, “Inhibitors of serine proteases” (priority 2005, dated 2011)

Target: T1, full-length hepatitis C viral protein NS3•4A (Hepatitis C virus genotype 1a, UniProt P27958)
T1 construct: hexa-histidine (N); made in house; host or cells: Sf9 insect cells (baculovirus, pVL1392)
Test: biochemical
Design: species or system HCV sub-type strain 1a

[1] = Enzyme Assay 2 (HCV NS3 Peptide Cleavage Assay) activity, apparent Ki class
[2] = Enzyme Assay 2, HCV NS3 Peptide Cleavage Assay, apparent Ki

SMILES | Ki [1] [nM] | Ki [2] [nM]
CCC[C@H](NC(=O)[C@@H]1C[C@]2(CC(c3cccc(Cl)c3)=NO2)CN1C(=O)[C@@H](NC(=O)CC1CCCCC1)C(C)(C)C)C(=O)C(=O)N1CC(OC2CCOC2)C1 (stereo partly shown) [Compound 368] | 100 to 500 | 
CCC[C@H](NC(=O)[C@@H]1C[C@]2(CC(c3cccc4cccnc34)=NO2)CN1C(=O)[C@@H](NC(=O)OC(C)(C)C)C(C)(C)C)C(=O)C(=O)NC1CC1 [Compound 619] | < 100 | 
CCC[C@H](NC(=O)[C@@H]1C[C@]2(CC(N3CCc4ccccc4C3)=NO2)CN1C(=O)[C@@H](NC(=O)OC1CCCC1)C(C)(C)C)C(=O)C(=O)NC1CC1 [Compound 962] |  | 100 to 500
CCC[C@H](NC(=O)[C@@H]1C[C@]2(CC(c3cccc(Cl)c3)=NO2)CN1C(=O)[C@@H](NC(=O)[C@H]1C[C@@H]1C1CCCC1)C(C)(C)C)C(=O)C(=O)NC1CC1 [Compound 953] |  | < 100
CCC[C@H](NC(=O)[C@@H]1C[C@]2(CC(c3cc(C)c(OC)c(C)c3)=NO2)CN1C(=O)[C@@H](NC(=O)CC(C)(C)C)C(C)(C)C)C(=O)C(N)=O [Compound 733] | < 100 | 
CCOc1cc(OC)c(C2=NO[C@]3(C2)C[C@@H](C(=O)N[C@@H](CC2CC2)C(=O)C(=O)NC)N(C(=O)[C@@H](NC(=O)OC(C)(C)C)C(C)(C)C)C3)cc1Cl [Compound 942] |  | < 100
CCC[C@H](NC(=O)[C@@H]1C[C@]2(CC(c3ccc(F)c(Cl)c3)=NO2)CN1C(=O)[C@@H](NC(=O)OC(C)(C)C)C(C)(C)C)C(=O)C(N)=O [Compound 627] | < 100 | 
CNC(=O)C(=O)[C@H](CC1CC1)NC(=O)[C@@H]1C[C@]2(CC(c3cc(Cl)cc4c3OCO4)=NO2)CN1C(=O)[C@@H](NC(=O)OC(C)(C)C)C(C)(C)C [Compound 691] | 100 to 500 | 
CCOc1cc(OC)c(C2=NO[C@]3(C2)C[C@@H](C(=O)N[C@@H](CC2CC2)C(=O)C(N)=O)N(C(=O)[C@@H](NC(=O)OC(C)(C)C)C(C)(C)C)C3)cc1Cl [Compound 971] |  | < 100
CNC(=O)C(=O)[C@H](CC1CC1)NC(=O)[C@@H]1C[C@]2(CC(c3cccc(Cl)c3)=NO2)CN1C(=O)[C@@H](NC(=O)[C@H]1CC1c1ccccc1)C(C)(C)OC (stereo partly shown) [Compound 959] |  | < 100
CCC[C@H](NC(=O)[C@@H]1C[C@]2(CC(c3cc(C)c(OCC)c(C)c3)=NO2)CN1C(=O)[C@@H](NC(=O)[C@@H]1C[C@H]1c1ccc(F)cc1)C(C)(C)C)C(=O)C(=O)NC1CC1 [Compound 994] |  | < 100
CCOc1c(C)cc(C2=NO[C@]3(C2)C[C@@H](C(=O)N[C@@H](CC2CC2)C(=O)C(=O)NC)N(C(=O)[C@@H](NC(=O)[C@H]2C[C@@H]2c2ccccn2)C(C)(C)C)C3)cc1C [Compound 986] |  | 100 to 500
CCC[C@H](NC(=O)[C@@H]1C[C@]2(CC(c3cc(Cl)ccn3)=NO2)CN1C(=O)[C@@H](NC(=O)OC1CCCC1)C(C)(C)C)C(=O)C(=O)NC1CC1 [Compound 667] | < 100 | 
CCC[C@H](NC(=O)[C@@H]1C[C@]2(CC(c3cc(C)c(OCC)c(C)c3)=NO2)CN1C(=O)[C@@H](NC(=O)[C@H]1C[C@@H]1c1ccc(F)cc1)C(C)(C)C)C(=O)C(=O)NC [Compound 997] |  | < 100
CCC[C@H](NC(=O)[C@@H]1C[C@]2(CC(c3cnc(OC)nc3OC)=NO2)CN1C(=O)[C@@H](NC(=O)OC1CCCC1)C(C)(C)C)C(=O)C(=O)NC1CC1 [Compound 678] | 100 to 500 | 
CCC[C@H](NC(=O)[C@@H]1C[C@]2(CC(c3cccc(Cl)c3)=NO2)CN1C(=O)[C@@H](NC(=O)OC(C)(C)C)C(C)(C)C)C(=O)C(=O)NC1CC1 [Compound 90] | < 100 | 
CCC[C@H](NC(=O)[C@@H]1C[C@]2(CC(c3cccc(Cl)n3)=NO2)CN1C(=O)[C@@H](NC(=O)CC1CCCCC1)C(C)(C)C)C(=O)C(=O)NC1CC1 [Compound 786] | 100 to 500 | 
COc1cc(OC)c(C2=NO[C@]3(C2)C[C@@H](C(=O)N[C@@H](CC2CC2)C(=O)C(N)=O)N(C(=O)[C@@H](NC(=O)CC(C)(C)C)C(C)(C)C)C3)cc1Cl [Compound 104] | < 100 | 
CCC[C@H](NC(=O)[C@@H]1C[C@@]2(CC(c3cc(Cl)c4c(c3)CCCN4C)=NO2)CN1C(=O)[C@@H](NC(=O)OC(C)(C)C)C(C)(C)C)C(=O)C(=O)NC1CC1 [Compound 600] | 100 to 500 | 
